We go through 2 compounds from US11576944B2, “Grape extracts and methods relating thereto” (priority 2016, dated 2023).

Experiment [1] has as its system MCF7 human ER+ breast tumors. The experiment in a line: MCF7 ER+ breast tumors in athymic mice, with tamoxifen. It is filed as in vivo, mouse. The note with it: 5 weeks.
Method: The mammary fat pads of athymic mice were injected with MCF7 human ER+ cells (1×10^6 cells) and tumor growth was measured every third day using a caliper.
The 4th inguinal mammary pads of athymic mice (female, 15-20 g, 5-6 weeks of age) were injected with 1×10^6 actively growing ZR-75-1 or MCF7 human ER+ breast cancer cells. The mice were group housed in cages with HEPA-filtered air on 12-h light/dark cycles and were fed regular rat chow ad libitum. Tumor size was measured twice a week in conscious animals, using a caliper, and tumor volume was calculated using the formula for a semi-ellipsoid (4/3πr^3)/2)]. […] After 7 weeks of treatment for the mice containing ZR-75-1 human ER+ breast tumors or 5 weeks of treatment for the mice containing MCF7 ER+ breast tumors, the mice were sacrificed and the tumors were removed and weighed.
For experiment [2], the system named is ZR-75-1 human ER+ breast tumors. Description: ZR-75-1 ER+ breast tumors in athymic mice, with tamoxifen. It is filed as in vivo, mouse. The note with it: 7 weeks.
Method: The mammary fat pads of athymic mice were injected with ZR-75-1 ER+ cells (1×10^6 cells), and tumor growth was measured every third day using a caliper.
Sections were incubated with an antibody to Ki67, a marker of proliferation.
The 4th inguinal mammary pads of athymic mice (female, 15-20 g, 5-6 weeks of age) were injected with 1×10^6 actively growing ZR-75-1 or MCF7 human ER+ breast cancer cells. […] Tumor size was measured twice a week in conscious animals, using a caliper, and tumor volume was calculated using the formula for a semi-ellipsoid (4/3πr^3)/2)]. […] After 7 weeks of treatment for the mice containing ZR-75-1 human ER+ breast tumors or 5 weeks of treatment for the mice containing MCF7 ER+ breast tumors, the mice were sacrificed and the tumors were removed and weighed.
Experiment [3] has as its system angiotensin II (Ang II)-induced hypertension. The experiment in a line: Ang II-induced hypertension and cardiac damage in rats. The experiment is classed as in vivo, rat. The note with it: Ang II alone 24 μg/kg/h via osmotic mini-pump, at 4 weeks (from 120.4±2.4). On the procedure:
The effect of p-MGE on hypertension and hypertension-induced cardiac damage was measured in rats with angiotensin II (Ang II)-induced hypertension. Sprague-Dawley rats (male, 8-12 weeks of age) were treated for 4 weeks with regular drinking water (Control), p-MGE alone (0.2 mg/mL of total phenolics in their drinking water), Ang II alone (24 μg/kg/h via implanted osmotic mini-pump) or p-MGE and Ang II. For a 250 g rat, this amount of p-MGE corresponds to approximately 20 mg phenolics/kg/day. Administration of p-MGE was initiated 1 week prior to treatment with Ang II. Blood pressure was recorded weekly by tail-cuff plethysmography, at the same time of day by the same individual. […] Scans to quantify cardiac parameters were taken in M mode parasternal short axis view at mid-papillary level, Tissue Doppler in 4 chamber view at the mitral annulus, and pulse wave Doppler in 4 chamber view to measure transmitral inflow. The ejection fraction of the heart and fractional shortening were measured in M mode parasternal short axis view at the mid-papillary level, using the VisualSonics Vevo 2100 High-Resolution Imaging System, as a measure of systolic function. […] Diastolic function was measured as e′, to assess the relaxation of the left ventricle, and E/e′, to assess the filling pressure of the left ventricle. […]

Setting [4] is: p-MGE 0.1 mg phenolics/mL drinking water, tamoxifen ~32 mg/kg/d in chow, or both.
The mark [5] stands for this setting: p-MGE 0.1 mg phenolics/mL, tamoxifen ~32 mg/kg/d, or both.

“Also recorded” adds a separate entry of the source.

`CC/C(=C(\c1ccccc1)c1ccc(OCCN(C)C)cc1)c1ccccc1` [tamoxifen]: the “tumor volume / growth” value in experiment [1] (setting [4]) and in experiment [2] (setting [4]) was “reduced the growth of both ER+ tumors; also recorded: also reduced tumor size” throughout. The tumor weight entry in experiment [1] (setting [5]) and in experiment [2] (setting [5]) was “also reduced tumor weight” in each case. In addition, in experiment [2] (setting [5]), the “Ki67 positive cells in tumor sections” value is reported as “associated with a reduction in the number of cells which were positive for the proliferation marker Ki67; also recorded: also significantly reduced proliferation”.

Turning to “angiotensin II (DRVYIHPF; Angiotensin-2; UniProt P01015 25-32, looked up) [Ang II, used to induce hypertension in rats]”, in experiment [3], the “systolic blood pressure (tail cuff)” value is 213.1±6.8 mm Hg.
